How the values were obtained:
[1] = Photocleavage under 505 nm green LED light, determined by HPLC; assay type: physicochemical; settings: free DTAEA in 50% acetonitrile/H2O, 50 mW/cm^2, 1 min
Experimental: The photocleavage mechanism of coumarin carbamate derivatives was reported as carbocation formation following with the addition of —OH group in aqueous solutions (FIG. 6a).^9 To quantitatively measure the photocleavage rate of free DTAEA, quartz cuvettes containing DTAEA in 50% acetonitrile/H2O was irradiated with 505 nm green LED light. At predetermined time points, the remaining DTAEA and released DEAdcCM were determined by high performance liquid chromatography (HPLC). […] The similar photocleavage process in DTAEA NPs took about 5 minutes for the completely consumption of DTAEA (FIG. 6c), which was slightly slow down compared to free DTAEA in the mixture of acetonitrile and water. […] Based on the photocleavage performance of DTAEA and DTNPs, the irradiation duration was set to be no less than 5 min with 505 nm green LED light at 50 mW/cm^2.

[2] = Systemic toxicity in treated tumor-bearing mice: body weight and H&E histology; assay type: in vivo, BALB/c nude mice; settings: drug administration period (Day 0 to Day 10), 5 mg/kg I.V.
Experimental: (§1) Generally, WERI-Rb-1 cells were injected slowly into the vitreous cavity at the right eyes of Bulb/c nude mice for the tumor implantation. […] The light irradiation was performed at the right eyes immediately after injection. […] To evaluate the biodistribution, the mice were euthanized after the above treatment, and their eyes (both sides), heart, lung, liver, spleen and kidney were further exteriorized for ex vivo fluorescence imaging. […] Seven days after the intraocular injection of WERI-Rb-1-GFP-luc cells, the luminescence signals from the cells can be determined by in vivo imaging system for in situ monitoring of orthotopic ocular tumors. […] The dosage of drug administration was precisely controlled based on the body weight of mice and set as 5 mg/kg body weight. The I.V. injection of formulations was applied every two days for five times. […] During the treatment, bioluminescence from the tumors was detected for tumor growth monitoring. […] Considering individual differences, tumor growth curves (FIG. 14b) of different groups were obtained by setting the bioluminescence intensity on the day before treatment (Day 0) as the origin and determining the quantitative changes in the subsequent days. […] The histological patterns of tumor-bearing retina and main organs were studied by hematoxylin and eosin (H&E) staining (FIG. 15 and FIG. 16).

[3] = system: human umbilical vein endothelial cells (HUVEC); experiment: Light-triggered cellular uptake in HUVEC cells, fluorescence microscopy; assay type: cell-based
Experimental: We further investigated the cellular uptake of the photo-released DOX by fluorescence microscopy and flow cytometry. In this work, human umbilical vein endothelial cells (HUVEC) and human retinoblastoma cells (WERI-Rb-1) were employed to investigate the cellular uptake. The cells were treated with various formulations, including free DOX, DOX/DTNPs and DOX/DTNPs+light irradiation (hv).

[4] = system: WERI-Rb-1-GFP-luc orthotopic tumor; experiment: Therapeutic effect on orthotopic WERI-Rb-1-GFP-luc tumors, bioluminescence; assay type: in vivo, BALB/c nude mice; settings: Day 25; 5 mg/kg I.V. every two days for five times; no irradiation
Experimental: as §1

DTAEA cleaved [1]	SMILES	body weight decrease [2]	red fluorescence intensity (DOX) in cells ([3]; HUVEC, no irradiation)	intracellular distribution of DOX fluorescence ([3]; without irradiation)	increase of bioluminescence intensity in eyes, compared to Day 0 [4] [folds]
More than 90%	CCN(CC)c1ccc2c(c1)OC(=C(C#N)C#N)C=C2COC(=O)NCCN(CCNC(=O)OCC1=CC(=C(C#N)C#N)Oc2cc(N(CC)CC)ccc21)CCNC(=O)OCC1=CC(=C(C#N)C#N)Oc2cc(N(CC)CC)ccc21 [DTAEA, (DEAdcCM)3-TAEA]	–	–	–	–
–	COc1cccc2c1C(=O)c1c(O)c3c(c(O)c1C2=O)C[C@@](O)(C(=O)CO)C[C@@H]3O[C@H]1C[C@H](N)[C@H](O)[C@H](C)O1 [free DOX, doxorubicin]	about 10%	as high as the irradiated group	observed in the cell nuclei	64.0

— patent US12419956B2, “Controlled drug release system of photoresponsive nanocarriers, methods of making and using thereof” (THE UNIVERSITY OF HONG KONG, priority 2020, dated 2025)
